Entries after “also recorded” stand apart in the source; their conditions may differ.
What was measured:
[1] = Alcohol-induced chronic pancreatitis model; type: in vivo; conditions: mice given ethanol and compound in the daily diet
From the text: FIG. 29. Effects of de-ethylflavopereirine in a mice model of alcohol-induced chronic pancreatitis. Paraffin sections of the pancreas were stained with hematoxylin and eosin. […] This tissue protection was quantitated with an injury score (FIG. 29B). Ly6G was elevated four-fold in the pancreas of mice given ethanol while the number of neutrophils was not elevated in mice given ethanol and compound 13-9-1 (FIG. 29C).
Daily administration of ethanol to mice was followed by a binge of ethanol administration, a regimen relevant to human consumption. In the experimental group, de-ethylflavopereirine was included in the daily diet throughout the course of the experiment. There were two control groups: animals that were given no alcohol (negative control) and animals given alcohol without receiving the compound 13-9-1 (positive control). Following 10 days of alcohol treatment, the animals were gavaged with alcohol for 8 hours then euthanized, and their pancreatic tissues were collected. Pancreatic tissue sections were analyzed for histology and isolated RNA was used for quantitative PCR.

[2] = Tissue distribution after oral administration; type: in vivo, mice; conditions: oral 200 mg/kg; for Tmax: mouse
From the text: The highest concentrations (highest Cmax) were found in kidney, colon and spleen. Highest AUC was found with the lung, followed by spleen, colon, and kidney.
Lung had the largest AUC and the fastest Tmax. […] Compound 13-9-1 was accumulated in the lung relatively fast, and was eliminated relatively slowly. The concentration was maintained in lung for a long time relative to other organs. At 24 hr, the concentration in the lung was still 6.67 nmoles/mg protein, 38% of the peak of 17.50 at 2 hr.
Colon had the second highest Cmax among all the organs tested, and an AUC only less than lung and spleen. […] Tmax was 3 hr. At 24 hr, the concentration was 9.31 nmoles/mg protein, 29% of the peak of 31.63.

c1ccc2c(c1)[nH]c1c2cc[n+]2ccccc12 [Compound 13-9-1, 12H-indolo[2,3-a]quinolizin-5-ium]
Ly6G level / number of neutrophils in the pancreas [1]: not elevated | injury score [1]: completely prevented injury | pancreatic tissue damage (histology) [1]: prevented; also recorded: no tissue damage | Ly6G level / number of neutrophils in the pancreas ([1]; listed as de-ethylflavopereirine): completely normal Ly6G level | Cmax ([2]; adrenal gland): 17.62 nmoles/mg of protein | Cmax ([2]; brain): 1.20 nmoles/mg of protein | Cmax ([2]; colon): 31.63 nmoles/mg of protein | concentration at 24 hr ([2]; colon): 9.31 nmoles/mg protein | concentration at 24 hr as share of the peak ([2]; colon): 29% | Cmax ([2]; heart): 7.82 nmoles/mg of protein | Cmax ([2]; kidney): 55.69 nmoles/mg of protein | Cmax ([2]; liver): 22.21 nmoles/mg of protein | Cmax ([2]; lung): 17.50 nmoles/mg of protein | concentration at 24 hr ([2]; lung): 6.67 nmoles/mg protein | concentration at 24 hr as share of the peak ([2]; lung): 38% | Tmax ([2]; adrenal gland): 4 h | Tmax ([2]; brain): 4 h | Tmax ([2]; colon): 3 h | Tmax ([2]; heart): 4 h | Tmax ([2]; kidney): 4 h | Tmax ([2]; liver): 4 h | Tmax ([2]; lung): 2 h | Tmax ([2]; muscle): 4 h | Tmax ([2]; ovary): 4 h | Tmax ([2]; pancreas): 4 h | Tmax ([2]; spleen): 4 h | Cmax ([2]; muscle): 5.67 nmoles/mg of protein | tissue distribution [2]: found in all tested organs and tissues, including the brain | Cmax ([2]; ovary): 11.17 nmoles/mg of protein | Cmax ([2]; pancreas): 16.95 nmoles/mg of protein | Cmax ([2]; spleen): 30.01 nmoles/mg of protein
